ChEMBL document CHEMBL5325403, “Benzenesulfonyl thiazoloimines as unique multitargeting antibacterial agents towards Enterococcus faecalis” (Eur J Med Chem, 2023)
In brackets after ≈: the same amount, converted by molar mass. Activity calls are given as the source filed them. The calls are words filed in the database; no cut-off is given here.

Columns and labels:
Staphylococcus aureus [1] = assay: Antibacterial activity against Staphylococcus aureus ATCC 25923 assessed as inhibition of bacterial growth by continuous dilution method; assay type: functional
Acinetobacter baumannii = assay: Antibacterial activity against Acinetobacter baumannii assessed as inhibition of bacterial growth by continuous dilution method; assay type: functional
Staphylococcus aureus [2] = assay: Antibacterial activity against Staphylococcus aureus assessed as inhibition of bacterial growth by continuous dilution method; assay type: functional
Staphylococcus aureus [3] = assay: Antibacterial activity against methicillin-resistant Staphylococcus aureus N315 assessed as inhibition of bacterial growth by continuous dilution method; assay type: functional
Pseudomonas aeruginosa [4] = assay: Antibacterial activity against Pseudomonas aeruginosa assessed as inhibition of bacterial growth by continuous dilution method; assay type: functional
Staphylococcus aureus [5] = assay: Antibacterial activity against Staphylococcus aureus ATCC 29213 assessed as inhibition of bacterial growth by continuous dilution method; assay type: functional
Enterococcus faecalis [6] = assay: Antibacterial activity against Enterococcus faecalis p1-2007225053 assessed as inhibition of bacterial growth by continuous dilution method; assay type: functional
Escherichia coli [7] = assay: Antibacterial activity against Escherichia coli assessed as inhibition of bacterial growth by continuous dilution method; assay type: functional
Pseudomonas aeruginosa [8] = assay: Antibacterial activity against Pseudomonas aeruginosa ATCC 27853 assessed as inhibition of bacterial growth by continuous dilution method; assay type: functional
Klebsiella pneumoniae = assay: Antibacterial activity against Klebsiella pneumoniae assessed as inhibition of bacterial growth by continuous dilution method; assay type: functional
Escherichia coli [9] = assay: Antibacterial activity against Escherichia coli ATCC 25922 assessed as inhibition of bacterial growth by continuous dilution method; assay type: functional
Enterococcus faecalis [10] = assay: Antibacterial activity against Enterococcus faecalis p1-2007226001 assessed as inhibition of bacterial growth by continuous dilution method; assay type: functional
Enterococcus faecalis [11] = assay: Antibacterial activity against Enterococcus faecalis assessed as inhibition of bacterial growth by continuous dilution method; assay type: functional
Calf thymus DNA [12] = assay: Binding affinity to calf thymus DNA assessed as compound DNA complex formation by measuring fluorescence intensity by acridine orange dye based competitive binding assay; assay type: nucleic-acid assay; conditions: Bos taurus
Enterococcus faecalis [13] = assay: Effect on cell morphology in Enterococcus faecalis assessed as cell deformation at 2 times of MIC incubated for 4 hrs by scanning electron microscopic analysis; assay type: functional, organism-based
Enterococcus faecalis [14] = assay: Antibacterial activity against Enterococcus faecalis assessed as reduction in bacterial growth measured after 16 passages by continuous dilution method; assay type: functional, organism-based
Calf thymus DNA [15] = assay: Binding affinity to calf thymus DNA assessed as compound DNA complex formation by UV-Vis spectrophotometric analysis; assay type: nucleic-acid assay; conditions: Bos taurus
Enterococcus faecalis [16] = assay: Induction of intracellular ROS generation in Enterococcus faecalis by DCFH-DA staining based fluorescence microscopic analysis; assay type: functional, organism-based
[17] = Cytotoxicity against human FHC cells assessed as cell viability rate at 20 ug/ml; assay type: toxicity, cell-based; conditions: at 20 µg/mL, read-out: Activity
Enterococcus faecalis [18] = assay: Antibiofilm activity against Enterococcus faecalis assessed as inhibition of biofilm formation at 0.5 to 6 times of MIC by crystal violet staining based analysis; assay type: functional, organism-based
Cell membrane [19] = assay: Induction of inner membrane permeabilization in Enterococcus faecalis at 4 times of MIC measured at 25 mins by PI staining under fluorescence microscopic analysis
Enterococcus faecalis [20] = assay: Antibacterial activity against Enterococcus faecalis assessed as log reduction in bacterial growth measured after 6 hrs by continuous dilution method; assay type: functional
Enterococcus faecalis [21] = assay: Antibiofilm activity against Enterococcus faecalis assessed as inhibition of biofilm formation at 6 times of MIC by crystal violet staining based analysis; assay type: functional; set-up: scale not given: the % may be the effect or the level left
[22] = Cytotoxicity against human NOK-SI cells assessed as cell viability rate at 20 ug/ml; assay type: toxicity, cell-based; conditions: at 20 µg/mL, read-out: Activity
Enterococcus faecalis [23] = assay: Induction of oxidative stress in Enterococcus faecalis assessed as decrease in GSH activity at 0.5 to 16 times of MIC by Ellman's method; assay type: functional, organism-based
Cell membrane [24] = assay: Induction of cytoplasmic membrane depolarization in Enterococcus faecalis at 4 times of MIC by DiSC35 dye-based fluorescence assay; conditions: time <= 80.0 min, TDE = time-dependent effect
Enterococcus faecalis [25] = assay: Effect on cell morphology in Enterococcus faecalis assessed as cell shrank at 2 times of MIC incubated for 4 hrs by scanning electron microscopic analysis; assay type: functional, organism-based
[26] = Hemolytic activity in human RBC assessed as hemolysis at 512 times of MIC measured after 1 hr; assay type: toxicity, cell-based, Erythrocyte; conditions: red blood cells (erythrocytes), read-out: Activity
Calf thymus DNA [27] = assay: Binding affinity to calf thymus DNA assessed as reduction in NR-DNA complex formation by measuring fluorescence intensity by competitive binding assay; assay type: nucleic-acid assay; conditions: Bos taurus
Enterococcus faecalis [28] = assay: Antibacterial activity against Enterococcus faecalis assessed as reduction in metabolic activity at 0.5 to 8 times of MIC by alamar blue staining based assay; assay type: functional, organism-based
Cell membrane [29] = assay: Disruption of cell membrane integrity in Enterococcus faecalis assessed as increase in protein leakage by Bradford assay

CCn1cc(C(=O)O)c(=O)c2cc(F)c(N3CCNCC3)cc21 [NORFLOXACIN]
MIC (Staphylococcus aureus [1]): 4 µg/mL (≈ 12.5 µM) | MIC (Acinetobacter baumannii): 4 µg/mL (≈ 12.5 µM) | MIC (Staphylococcus aureus [2]): 4 µg/mL (≈ 12.5 µM) | MIC (Staphylococcus aureus [3]): 8 µg/mL (≈ 25.1 µM) | MIC (Pseudomonas aeruginosa [4]): 2 µg/mL (≈ 6.26 µM) | MIC (Staphylococcus aureus [5]): 2 µg/mL (≈ 6.26 µM) | MIC (Enterococcus faecalis [6]): 8 µg/mL (≈ 25.1 µM) | MIC (Escherichia coli [7]): 16 µg/mL (≈ 50.1 µM) | MIC (Pseudomonas aeruginosa [8]): 2 µg/mL (≈ 6.26 µM) | MIC (Klebsiella pneumoniae): 8 µg/mL (≈ 25.1 µM) | MIC (Escherichia coli [9]): 4 µg/mL (≈ 12.5 µM) | MIC (Enterococcus faecalis [10]): 4 µg/mL (≈ 12.5 µM) | MIC (Enterococcus faecalis [11]): 8 µg/mL (≈ 25.1 µM)

CC(=O)Nc1ccc(S(=O)(=O)C/C(=N/NC(=O)c2ccccn2)c2nccs2)cc1
MIC (Staphylococcus aureus [1]): 4 µg/mL (≈ 9.02 µM) | MIC (Acinetobacter baumannii): 32 µg/mL (≈ 72.2 µM) | MIC (Staphylococcus aureus [2]): 4 µg/mL (≈ 9.02 µM) | MIC (Staphylococcus aureus [3]): 64 µg/mL (≈ 144 µM) | Activity (Calf thymus DNA [12]): Active | Activity (Enterococcus faecalis [13]): Active | Activity (Enterococcus faecalis [14]): Active | Activity (Calf thymus DNA [15]): Active | Activity (Enterococcus faecalis [16]): Dose-Dependent Effect | viability at 20 ug/ml [17]: 45% | Activity (Enterococcus faecalis [18]): Active | MIC (Pseudomonas aeruginosa [4]): 128 µg/mL (≈ 289 µM) | MIC (Staphylococcus aureus [5]): 256 µg/mL (≈ 577 µM) | MIC (Enterococcus faecalis [6]): 2 µg/mL (≈ 4.51 µM) | Activity (Cell membrane [19]): Active | Activity (Enterococcus faecalis [20]): Dose-Dependent Effect | log(activity) (Enterococcus faecalis [20]): 3 | Activity (Enterococcus faecalis [21]): 35% | viability at 20 ug/ml [22]: 65% | MIC (Escherichia coli [7]): 32 µg/mL (≈ 72.2 µM) | Activity (Enterococcus faecalis [23]): Active | Activity (Cell membrane [24]): Tde | Activity (Enterococcus faecalis [25]): Active | MIC (Pseudomonas aeruginosa [8]): 32 µg/mL (≈ 72.2 µM) | MIC (Klebsiella pneumoniae): 64 µg/mL (≈ 144 µM) | hemolysis at 1 h, 512 times of MIC [26]: < 3% | MIC (Escherichia coli [9]): 64 µg/mL (≈ 144 µM) | Activity (Calf thymus DNA [27]): Active | MIC (Enterococcus faecalis [10]): 4 µg/mL (≈ 9.02 µM) | Activity (Enterococcus faecalis [28]): Active | Activity (Cell membrane [29]): Dose-Dependent Effect | MIC (Enterococcus faecalis [11]): 1 µg/mL (≈ 2.25 µM)

Nc1ccc(S(=O)(=O)Nc2nccs2)cc1 [SULFATHIAZOLE]
MIC (Staphylococcus aureus [1]): 64 µg/mL (≈ 251 µM) | MIC (Acinetobacter baumannii): 128 µg/mL (≈ 501 µM) | MIC (Staphylococcus aureus [2]): 128 µg/mL (≈ 501 µM) | MIC (Staphylococcus aureus [3]): 64 µg/mL (≈ 251 µM) | MIC (Pseudomonas aeruginosa [4]): 128 µg/mL (≈ 501 µM) | MIC (Staphylococcus aureus [5]): 128 µg/mL (≈ 501 µM) | MIC (Escherichia coli [7]): 256 µg/mL (≈ 1000 µM) | MIC (Pseudomonas aeruginosa [8]): 512 µg/mL (≈ 2010 µM) | MIC (Klebsiella pneumoniae): 128 µg/mL (≈ 501 µM) | MIC (Escherichia coli [9]): 128 µg/mL (≈ 501 µM) | MIC (Enterococcus faecalis [11]): 128 µg/mL (≈ 501 µM)

CC(=O)Nc1ccc(S(=O)(=O)C/C(=N/NC(=O)c2cccnc2)c2nccs2)cc1
MIC (Staphylococcus aureus [1]): 2 µg/mL (≈ 4.51 µM) | MIC (Acinetobacter baumannii): 32 µg/mL (≈ 72.2 µM) | MIC (Staphylococcus aureus [2]): 8 µg/mL (≈ 18 µM) | MIC (Staphylococcus aureus [3]): 2 µg/mL (≈ 4.51 µM) | MIC (Pseudomonas aeruginosa [4]): 128 µg/mL (≈ 289 µM) | MIC (Staphylococcus aureus [5]): 128 µg/mL (≈ 289 µM) | MIC (Escherichia coli [7]): 32 µg/mL (≈ 72.2 µM) | MIC (Pseudomonas aeruginosa [8]): 16 µg/mL (≈ 36.1 µM) | MIC (Klebsiella pneumoniae): 16 µg/mL (≈ 36.1 µM) | MIC (Escherichia coli [9]): 128 µg/mL (≈ 289 µM) | MIC (Enterococcus faecalis [11]): 128 µg/mL (≈ 289 µM)

C#CCO/N=C(/CS(=O)(=O)c1ccc(NC(C)=O)cc1)c1nccs1
MIC (Staphylococcus aureus [1]): 64 µg/mL (≈ 170 µM) | MIC (Acinetobacter baumannii): 128 µg/mL (≈ 339 µM) | MIC (Staphylococcus aureus [2]): 64 µg/mL (≈ 170 µM) | MIC (Staphylococcus aureus [3]): 32 µg/mL (≈ 84.8 µM) | MIC (Pseudomonas aeruginosa [4]): 64 µg/mL (≈ 170 µM) | MIC (Staphylococcus aureus [5]): 64 µg/mL (≈ 170 µM) | MIC (Escherichia coli [7]): 32 µg/mL (≈ 84.8 µM) | MIC (Pseudomonas aeruginosa [8]): 64 µg/mL (≈ 170 µM) | MIC (Klebsiella pneumoniae): 32 µg/mL (≈ 84.8 µM) | MIC (Escherichia coli [9]): 16 µg/mL (≈ 42.4 µM) | MIC (Enterococcus faecalis [11]): 64 µg/mL (≈ 170 µM)

C=CCO/N=C(/CS(=O)(=O)c1ccc(NC(C)=O)cc1)c1nccs1
MIC (Staphylococcus aureus [1]): 32 µg/mL (≈ 84.3 µM) | MIC (Acinetobacter baumannii): 128 µg/mL (≈ 337 µM) | MIC (Staphylococcus aureus [2]): 128 µg/mL (≈ 337 µM) | MIC (Staphylococcus aureus [3]): 64 µg/mL (≈ 169 µM) | MIC (Pseudomonas aeruginosa [4]): 128 µg/mL (≈ 337 µM) | MIC (Staphylococcus aureus [5]): 64 µg/mL (≈ 169 µM) | MIC (Escherichia coli [7]): 64 µg/mL (≈ 169 µM) | MIC (Pseudomonas aeruginosa [8]): 64 µg/mL (≈ 169 µM) | MIC (Klebsiella pneumoniae): 64 µg/mL (≈ 169 µM) | MIC (Escherichia coli [9]): 16 µg/mL (≈ 42.2 µM) | MIC (Enterococcus faecalis [11]): 32 µg/mL (≈ 84.3 µM)

CC(=O)Nc1ccc(S(=O)(=O)/C(=C\c2ccc(C(F)(F)F)cc2)C(=O)c2nccs2)cc1
MIC (Staphylococcus aureus [1]): 128 µg/mL (≈ 266 µM) | MIC (Acinetobacter baumannii): 128 µg/mL (≈ 266 µM) | MIC (Staphylococcus aureus [2]): 256 µg/mL (≈ 533 µM) | MIC (Staphylococcus aureus [3]): 256 µg/mL (≈ 533 µM) | MIC (Pseudomonas aeruginosa [4]): 64 µg/mL (≈ 133 µM) | MIC (Staphylococcus aureus [5]): 128 µg/mL (≈ 266 µM) | MIC (Escherichia coli [7]): 256 µg/mL (≈ 533 µM) | MIC (Pseudomonas aeruginosa [8]): 64 µg/mL (≈ 133 µM) | MIC (Klebsiella pneumoniae): 256 µg/mL (≈ 533 µM) | MIC (Escherichia coli [9]): 256 µg/mL (≈ 533 µM) | MIC (Enterococcus faecalis [11]): 128 µg/mL (≈ 266 µM)

CC(=O)Nc1ccc(S(=O)(=O)/C(=C\c2ccc(C)cc2)C(=O)c2nccs2)cc1
MIC (Staphylococcus aureus [1]): 256 µg/mL (≈ 600 µM) | MIC (Acinetobacter baumannii): 256 µg/mL (≈ 600 µM) | MIC (Staphylococcus aureus [2]): 256 µg/mL (≈ 600 µM) | MIC (Staphylococcus aureus [3]): 128 µg/mL (≈ 300 µM) | MIC (Pseudomonas aeruginosa [4]): 128 µg/mL (≈ 300 µM) | MIC (Staphylococcus aureus [5]): 256 µg/mL (≈ 600 µM) | MIC (Escherichia coli [7]): 256 µg/mL (≈ 600 µM) | MIC (Pseudomonas aeruginosa [8]): 128 µg/mL (≈ 300 µM) | MIC (Klebsiella pneumoniae): 256 µg/mL (≈ 600 µM) | MIC (Escherichia coli [9]): 256 µg/mL (≈ 600 µM) | MIC (Enterococcus faecalis [11]): 128 µg/mL (≈ 300 µM)
